The assay concerns Neuron. The experiment in a line: Neurotrophic activity in Sprague-Dawley rat neurons assessed as induction of neurite outgrowth at 0.1 to 10 uM after 5 days by microscopy. In kind it is functional, cell-based.

Activity calls are given as the source filed them. The calls are words filed in the database; no cut-off is given here.

Turning to `C[C@@H]1[C@H](O)C=C2[C@@]13C[C@@H](OC(=O)[C@@H]3O)[C@@]1(O)C(=O)OC[C@@]21C`, the result was Active.

As to `COC(=O)C1(O)O[C@@H]2C[C@@]13C(=CC(=O)[C@@H]3C)[C@]1(C)COC(=O)[C@]21O` (mixture of isomers), the result was Active.
